PMC9974488, “Probing coenzyme A homeostasis with semisynthetic biosensors” (Nature Chemical Biology, 2022)

Columns and labels:
[1] = molecular target: T1, pantothenate kinase (ecPanK) (Escherichia coli, UniProt P0A6I3); experiment: fluorescence polarization competition against TMR-TAZ; assay type: binding
T1 construct: gene coaA; ecPanK WT, N-terminal Strep-tag, C-terminal Hisx10
T1 sequence (P0A6I3 1-316): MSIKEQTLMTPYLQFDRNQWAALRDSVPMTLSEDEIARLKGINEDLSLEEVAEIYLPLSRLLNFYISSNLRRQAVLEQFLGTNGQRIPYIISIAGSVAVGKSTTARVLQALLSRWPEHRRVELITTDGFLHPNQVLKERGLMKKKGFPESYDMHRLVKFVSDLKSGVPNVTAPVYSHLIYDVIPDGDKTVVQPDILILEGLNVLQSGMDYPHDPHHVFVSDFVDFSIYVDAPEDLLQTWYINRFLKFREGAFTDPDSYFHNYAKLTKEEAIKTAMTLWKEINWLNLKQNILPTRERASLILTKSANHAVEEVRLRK

[2] = molecular target: T1, pantothenate kinase (ecPanK); experiment: biochemical; parameters: fluorescence polarization competition against 50 nM TMR-TAZ with 20 uM ecPanK, half-maximal c50
Method: The binding affinity (c50) of different ecPanKs for CoA and AcCoA were determined by a fluorescence polarization competition assay against TMR-TAZ. 50 nM TMR-TAZ and 20 μM ecPanKs, except ecPanK^D127A,F252Y,L277W (100 μM), were titrated against CoA or AcCoA concentrations ranging from 64 nM to 5 mM in PBS supplemented with 0.5 mg ml^−1 BSA and 50 mM HEPES. Assays were performed in non-binding black 96-well plates with a final volume of 50 μl with excitation at 520 nm (bandwidth 20 nm) and emission 600 nm (bandwidth 20 nm). Obtained FP values were averaged and fitted to equation (4) to estimate the c50 values using OriginPro 2021.4 FP=FP0+FPs−FP0/1+c50/[L] Where FP0 is the fluorescence polarization of the fluorophore with ecPanKs in the absence of CoA or AcCoA (bound fluorophore), FPs is the fluorescence polarization of the fluorophore in the presence of CoA or AcCoA (free fluorophore) c50 is the half-maximal effective concentration, and [L] is the concentration of CoA or AcCoA. […] Representative in-gel fluorescence scan after SDS-PAGE (n = 3 independent experiments) of Halo-SiR labeled sensor proteins, Lane 1: protein marker, lane 2: CoA-Snifit^V97T, lane 3: CoA-Snifit^G41, lane 4: CoA-Snifit^G41S, lane 5: CoA-Snifit^G41N. c. […] Fluorescence polarization responses (FP, mean ± s.d., n = 3 independent replicates) of 50 nM TMR-TAZ as a function of ecPanK^WT concentration in PBS. e. […]

[3] = molecular target: T1, pantothenate kinase (ecPanK); experiment: fluorescence polarization, purified protein titrated against […] TMR-TAZ; assay type: binding
[4] = molecular target: T2, pantothenate kinase (ecPanK) (Escherichia coli, UniProt P0A6I3, D127A/F252Y/L277W); experiment: fluorescence polarization; assay type: binding
T2 construct: gene coaA; ecPanK D127A,F252Y,L277W

Compound | fluorescence polarization competition against TMR-TAZ [1] | IC50 [2] | Kd [3] | Kd [4]
CC(C)(COP(=O)(O)OP(=O)(O)OC[C@H]1O[C@@H](n2cnc3c(N)ncnc32)[C@H](O)[C@@H]1OP(=O)(O)O)[C@@H](O)C(=O)NCCC(=O)NCCS [Coenzyme A] | CoA competes with TMR-TAZ for binding to ecPanK (Extended Data Fig. 1e) | 214 ± 19.2 µM |  | 
CC(=O)SCCNC(=O)CCNC(=O)[C@H](O)C(C)(C)COP(=O)(O)OP(=O)(O)OC[C@H]1O[C@@H](n2cnc3c(N)ncnc32)[C@H](O)[C@@H]1OP(=O)(O)O [acetyl-CoA] |  | 1420 ± 315 µM |  | 
CC(NC(=O)c1ccccc1C(F)(F)F)c1nnc(SCc2ccc(F)cc2)n1Cc1ccc(COC(=O)NCCOCCOCCNC(=O)c2ccc(C(=O)O)c(-c3c4ccc(=[N+](C)C)cc-4oc4cc(N(C)C)ccc34)c2)nc1 (centres unmarked) [compound 1, TMR-TAZ] |  |  | 1.2 ± 0.2 µM | 21.6 ± 3.7 µM
